The results in this text go back to patent US20250368633A1, “AZEPINE FUSED RING COMPOUND AS RIPK1 INHIBITOR AND USE THEREOF” (ARTIVILA BIOPHARMA, priority 2022, published 2025).

The EC50 is the concentration needed to bring the measured effect to its halfway point.

The subject of assay [1] is U937 cells. The experiment in a line: EC50 of necroptosis inhibition in U937 cells (TSZ-induced, CellTiter-Glo). It is filed as cell-based. Particulars: Homo sapiens, U-937; TSZ (hTNF-α, SM-164, Z-VAD-FMK) 20 hours; 10 concentration points; read-out: EC50 intervals of necroptosis inhibition in U937 cells. The procedure, abridged:
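U937 cells pretreated 15 min with compound (10-point, 1:3 series), then necroptosis induced by TSZ (hTNF-α, SM-164, Z-VAD-FMK) for 20 h at 37 °C. Viability measured as ATP by CellTiter-Glo luminescence; inhibition normalised to untreated and TSZ-only wells, EC50 from four-parameter fit.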
In general terms: In ATP-based viability assays light output follows the ATP content of the culture.

Assay [2] deals with U937 cells. The experiment in a line: Inhibition rate of compound (1 μM) on necroptosis of U937 cells (TSZ-induced, CellTiter-Glo). It is filed as cell-based. The settings on record: TSZ (hTNF-α, SM-164, Z-VAD-FMK) 20 hours. In short, it runs like this:
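U937 cells were pretreated 15 min with compound, then necroptosis was triggered with TSZ (Z-VAD-FMK, hTNF-α, SM-164) for 20 h at 37° C. Viability was read as ATP by CellTiter-Glo luminescence, and inhibition (%) was taken relative to no-TSZ and TSZ-only wells.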

Consider `C[C@@H](NC(=O)C(=O)N[C@H]1COc2ccc(C#CCN3CCC(=O)CC3)cc2N(C)C1=O)c1ccccc1` [Example 139, N^1-((S)-5-methyl-4-oxo-7-(3-(4-oxopiperidin-1-yl)prop-1-yn-1-yl)-2,3,4,5-tetrahydrobenzo[b][1, 4]oxazepin-3-yl)-N^2-((R)-1-phenylethyl)oxalamide], for which the EC50 in assay [1] is below 0.1 µM. Besides, in assay [2], the “Inhibition rate range of compounds (1 μM) on U937 cell necroptosis” value (from here on “Inhibition rate range of compounds”) is reported as “B (B: 50-89%)”.
The matching figures for `C[C@@H](NC(=O)C(=O)N[C@H]1COc2ccc(C#CCN3CCOCC3)cc2N(C)C1=O)c1ccccc1` [Example 140, N^1-((S)-5-methyl-7-(3-morpholinoprop-1-yn-1-yl)-4-oxo-2,3,4,5-tetrahydrobenzo[b][1,4]oxazepin-3-yl)-N^2-((R)-1-phenylethyl)oxalamide]: below 0.1 µM and “A (A: ≥90%)”.
The matching figures for `C[C@@H](NC(=O)C(=O)N[C@H]1COc2ccc(C#CCN3C(=O)CCC3=O)cc2N(C)C1=O)c1ccccc1` [Example 144, N^1-((S)-7-(3-(2,5-dioxopyrrolidin-1-yl)prop-1-yn-1-yl)-5-methyl-4-oxo-2,3,4,5-tetrahydrobenzo[b][1,4]oxazepin-3-yl)-N^2-((R)-1-phenylethyl)oxalamide]: below 0.1 µM and “A (A: ≥90%)”.
For `C[C@@H](NC(=O)C(=O)N[C@H]1COc2ccc(C#CCN3CCNC(=O)C3)cc2N(C)C1=O)c1ccccc1` [Example 145, N^1-((S)-5-methyl-4-oxo-7-(3-(3-oxopiperazin-1-yl)prop-1-yn-1-yl)-2,3,4,5-tetrahydrobenzo[b][1, 4]oxazepin-3-yl)-N^2-((R)-1-phenylethyl)oxalamide], the EC50 in assay [1] is below 0.1 µM. Also, in assay [2], the “Inhibition rate range of compounds” value is on record as “A (A: ≥90%)”.
The matching figures for `C[C@@H](NC(=O)C(=O)N[C@H]1COc2ccc(C#CCN(C)C)cc2N(C)C1=O)c1ccccc1` [Example 146, N^1-((S)-7-(3-(dimethylamino)prop-1-yn-1-yl)-5-methyl-4-oxo-2,3,4,5-tetrahydrobenzo[b][1,4]oxazepin-3-yl)-N^2-((R)-1-phenylethyl)oxalamide]: below 0.1 µM and “A (A: ≥90%)”.
The matching figures for `C[C@@H](NC(=O)C(=O)N[C@H]1COc2ccc(C#CC3CN(CC#N)C3)cc2N(C)C1=O)c1ccccc1` [Example 148, N^1-((S)-7-((1-(cyanomethyl)azetidin-3-yl)ethynyl)-5-methyl-4-oxo-2,3,4,5-tetrahydrobenzo[b][1, 4]oxazepin-3-yl)-N^2-((R)-1-phenylethyl)oxalamide]: below 0.1 µM and “A (A: ≥90%)”.
The matching figures for `C[C@@H](CNC(=O)C(=O)N[C@H]1COc2ccc(C#CCCO)cc2N(C)C1=O)c1ccccc1` [Example 155, N^1-((S)-7-(4-hydroxybut-1-yn-1-yl)-5-methyl-4-oxo-2,3,4,5-tetrahydrobenzo[b][1,4]oxazepin-3-yl)-N^2-((R)-2-phenylpropyl)oxalamide]: below 0.1 µM and “A (A: ≥90%)”.
As for `C[C@H](CNC(=O)C(=O)N[C@H]1COc2ccc(C#CCCO)cc2N(C)C1=O)c1ccccc1` [Example 156, N^1-((S)-7-(4-hydroxybut-1-yn-1-yl)-5-methyl-4-oxo-2,3,4,5-tetrahydrobenzo[b][1,4]oxazepin-3-yl)-N^2-((S)-2-phenylpropyl)oxalamide], the EC50 in assay [1] was below 0.1 µM. The “Inhibition rate range of compounds” value in assay [2] is recorded as “A (A: ≥90%)”.
The matching figures for `C[C@@H](CNC(=O)C(=O)N[C@H]1COc2ccc(C#CC3(O)COC3)cc2N(C)C1=O)c1ccccc1` [Example 158, N^1-((S)-7-((3-hydroxyoxetan-3-yl)ethynyl)-5-methyl-4-oxo-2,3,4,5-tetrahydrobenzo[b][1,4]oxazepin-3-yl)-N^2-((R)-2-phenylpropyl)oxalamide]: below 0.1 µM and “A (A: ≥90%)”.
The matching figures for `C[C@@H](CNC(=O)C(=O)N[C@H]1COc2ccc(C#CCN3CCOCC3)cc2N(C)C1=O)c1ccccc1` [Example 159, N^1-((S)-5-methyl-7-(3-morpholinoprop-1-yn-1-yl)-4-oxo-2,3,4,5-tetrahydrobenzo[b][1,4]oxazepin-3-yl)-N^2-((R)-2-phenylpropyl)oxalamide]: below 0.1 µM and “A (A: ≥90%)”.
The matching figures for `CN1C(=O)C(NC(=O)C(=O)NCCc2cccc(F)c2)CCc2ccc(C#CCCO)cc21` (stereo not shown) [Example 167, N^1-(3-fluorophenethyl)-N^2-(8-(4-hydroxybut-1-yn-1-yl)-1-methyl-2-oxo-2,3,4,5-tetrahydro-1H-benzo[b]azepin-3-yl)oxalamide]: below 0.1 µM and “A (A: ≥90%)”.
